Measured values taken from US11807835B2, “Detergent compositions containing a stabilized enzyme by phosphonates” (ECOLAB USA INC., priority 2016, dated 2023).

Columns and labels:
protease = assay: Protease activity retention in detergent use solution (4000 ppm, 5 GPG water; peptidyl substrate, glycine buffer pH 9.0); assay type: biochemical; conditions: for Relative Protease Enzyme Activity: use solution at 120° F.
Procedure: (§1) The enzyme activities in the detergents with different phosphonate levels were tested at 4000 ppm in 5 grains per gallon (GPG) water at 120° F. with various time points collected up to 4 hours, after a use solution was generated from the detergent composition. During the tests, the samples at different time points were collected and immediately frozen in an acetone/dry ice bath and stored in −80° C. before the activity of the enzyme was evaluated. For the use of such an assay, t=0 min was the reference point for 100% enzyme activity.
(§2) Assays of enzyme activity in formulations (% retention) were conducted to simulate a presoak condition in a beaker using the chemistry, temperature, and pH conditions relevant to manual warewash or presoak applications. Enzyme activity is an indicator of the stability of the enzyme in the detergent, specifically in an aqueous use solution within a sump (which is under conditions of high pH, temperature and dilution).
The analysis by protease assay was conducted as follows. For the assays, a detergent composition was used to generate an aqueous use solution evaluated herein.
(§3) Enzyme activity under presoak or manual warewash conditions was traced quantitatively using a standard protease assay. Samples were prepared under bench top conditions, whereby the use solution from a detergent composition or detergent was obtained and maintained at a presoak or manual warewash temperature in a stirring water bath. After the time course for assessing enzyme stability is initiated, aliquots were taken at various time points and flash-frozen. A time=0 sample was prepared for each series by dissolving the detergent formulation at room temperature, mixing thoroughly, and flash freezing. Samples were thawed and diluted as necessary in an assay buffer usually for use in the protease assay. A glycine buffer at pH 9.0 is used here. The assay monitored the direct reaction of the protease on a small, commercially available peptidyl substrate, with liberation of the product providing correlation to the active enzyme content. The product was detected using a plate reader with an appreciable dynamic range (upper absorbance limit of the instrument >3.5). Enzyme activity levels were assessed relative to a calibration curve with average values for replicate tests used to map protease stability under presoak or manual warewash use conditions. Enzyme retention at each time point was calculated as the % enzyme activity relative to the time=0 sample.

lipase = assay: Lipase activity retention in detergent use solution (4000 ppm, 5 GPG water; p-nitrophenyl valerate, TRIS buffer pH 8.0); assay type: biochemical; conditions: Table 6E, phosphonate 0.3 wt-%, room temperature
Procedure: as §1, with “activities in the detergents with different phosphonate levels were tested at 4000 ppm in 5 grains per gallon (GPG) water at 120° F. with various time points” left out
as §2, §3
The analysis by lipase and amylase assay was conducted similarly, except with a different substrate and buffers. For lipase activity, the substrate is p-nitrophenyl valerate, and for amylase, the substrate is an ethylidene substrate (EPS). The buffer used in lipase assay is TRIS (Tris(hydroxymethyl)aminomethane) buffer at pH 8.0, and in amylase assay HEPES (4-(2-hydroxyethyl)-1-piperazineethanesulfonic acid) buffer at pH 8.0.

With CC(O)(P(=O)(O)O)P(=O)(O)O [HEDP, 1-hydroxy ethylidene-1,1-diphosphonic acid] the “Relative Protease Enzyme Activity” value (protease; All Ash formula, phosphonate 0.3 wt-%, time 0 min) was 100.00%, the “Relative Protease Enzyme Activity” value (protease; All Ash formula, phosphonate 0.3 wt-%, time 5 min) was 8.63% and the “Relative Protease Enzyme Activity” value (protease; All Ash formula, phosphonate 0.3 wt-%, time 10 min) was 3.25%. For the same compound, the “Relative Protease Enzyme Activity” value (protease; All Ash formula, phosphonate 0.3 wt-%, time 20 min) was 0.61%, the “Relative Protease Enzyme Activity” value (protease; All Ash formula, phosphonate 0.3 wt-%, time 40 min) was −1.32% and the “Relative Protease Enzyme Activity” value (protease; All Ash formula, phosphonate 0.3 wt-%, time 60 min) was −1.66%. For the same compound, the “Relative Protease Enzyme Activity” value (protease; All Ash formula, phosphonate 0.3 wt-%, time 90 min) was −0.97%, the “Relative Protease Enzyme Activity” value (protease; All Ash formula, phosphonate 0.3 wt-%, time 120 min) was −1.23% and the “Relative Protease Enzyme Activity” value (protease; All Ash formula, phosphonate 0.3 wt-%, time 150 min) was −0.85%. For the same compound, the “Relative Protease Enzyme Activity” value (protease; All Ash formula, phosphonate 0.3 wt-%, time 180 min) was −0.93%, the “Relative Protease Enzyme Activity” value (protease; All Ash formula, phosphonate 0.3 wt-%, time 210 min) was −0.42% and the “Relative Protease Enzyme Activity” value (protease; All Ash formula, phosphonate 0.3 wt-%, time 240 min) was −0.42%. The “Relative Protease Enzyme Activity” value (protease; base formula, phosphonate 0.3 wt-%, time 0 min) was 100.00%, the “Relative Protease Enzyme Activity” value (protease; base formula, phosphonate 0.3 wt-%, time 5 min) was 52.21% and the “Relative Protease Enzyme Activity” value (protease; base formula, phosphonate 0.3 wt-%, time 10 min) was 32.95%. For the same compound, the “Relative Protease Enzyme Activity” value (protease; base formula, phosphonate 0.3 wt-%, time 20 min) was 15.91%, the “Relative Protease Enzyme Activity” value (protease; base formula, phosphonate 0.3 wt-%, time 40 min) was 8.68% and the “Relative Protease Enzyme Activity” value (protease; base formula, phosphonate 0.3 wt-%, time 60 min) was 5.52%. The “Relative Protease Enzyme Activity” value (protease; base formula, phosphonate 0.3 wt-%, time 90 min) was 4.10%, the “Relative Protease Enzyme Activity” value (protease; base formula, phosphonate 0.3 wt-%, time 120 min) was 3.10% and the “Relative Protease Enzyme Activity” value (protease; base formula, phosphonate 0.3 wt-%, time 150 min) was 2.39%. The “Relative Protease Enzyme Activity” value (protease; base formula, phosphonate 0.3 wt-%, time 180 min) was 1.65%, the “Relative Protease Enzyme Activity” value (protease; base formula, phosphonate 0.3 wt-%, time 210 min) was 1.36% and the “Relative Protease Enzyme Activity” value (protease; base formula, phosphonate 0.3 wt-%, time 240 min) was 1.20%. The “Relative Protease Enzyme Activity” value (protease; base formula, phosphonate 0.6 wt-%, time 0 min) was 100.00%, the “Relative Protease Enzyme Activity” value (protease; base formula, phosphonate 0.6 wt-%, time 5 min) was 69.69% and the “Relative Protease Enzyme Activity” value (protease; base formula, phosphonate 0.6 wt-%, time 10 min) was 51.90%. The “Relative Protease Enzyme Activity” value (protease; base formula, phosphonate 0.6 wt-%, time 20 min) was 27.67%, the “Relative Protease Enzyme Activity” value (protease; base formula, phosphonate 0.6 wt-%, time 40 min) was 12.41% and the “Relative Protease Enzyme Activity” value (protease; base formula, phosphonate 0.6 wt-%, time 60 min) was 7.62%. The “Relative Protease Enzyme Activity” value (protease; base formula, phosphonate 0.6 wt-%, time 90 min) was 4.70%, the “Relative Protease Enzyme Activity” value (protease; base formula, phosphonate 0.6 wt-%, time 120 min) was 2.94% and the “Relative Protease Enzyme Activity” value (protease; base formula, phosphonate 0.6 wt-%, time 150 min) was 1.79%. The “Relative Protease Enzyme Activity” value (protease; base formula, phosphonate 0.6 wt-%, time 180 min) was 0.92%, the “Relative Protease Enzyme Activity” value (protease; base formula, phosphonate 0.6 wt-%, time 210 min) was 0.71% and the “Relative Protease Enzyme Activity” value (protease; base formula, phosphonate 0.6 wt-%, time 240 min) was 0.45%. The “Relative Protease Enzyme Activity” value (protease; base formula, phosphonate at 0.1% elemental phosphorus, time 0 min) was 100.00%, the “Relative Protease Enzyme Activity” value (protease; base formula, phosphonate at 0.1% elemental phosphorus, time 5 min) was 77.74% and the “Relative Protease Enzyme Activity” value (protease; base formula, phosphonate at 0.1% elemental phosphorus, time 10 min) was 53.71%. For the same compound, the “Relative Protease Enzyme Activity” value (protease; base formula, phosphonate at 0.1% elemental phosphorus, time 20 min) was 23.58%, the “Relative Protease Enzyme Activity” value (protease; base formula, phosphonate at 0.1% elemental phosphorus, time 40 min) was 9.12% and the “Relative Protease Enzyme Activity” value (protease; base formula, phosphonate at 0.1% elemental phosphorus, time 60 min) was 5.36%. The “Relative Protease Enzyme Activity” value (protease; base formula, phosphonate at 0.1% elemental phosphorus, time 90 min) was 3.76%, the “Relative Protease Enzyme Activity” value (protease; base formula, phosphonate at 0.1% elemental phosphorus, time 120 min) was 2.44% and the “Relative Protease Enzyme Activity” value (protease; base formula, phosphonate at 0.1% elemental phosphorus, time 150 min) was 1.45%. For the same compound, the “Relative Protease Enzyme Activity” value (protease; base formula, phosphonate at 0.1% elemental phosphorus, time 180 min) was 0.74%, the “Relative Protease Enzyme Activity” value (protease; base formula, phosphonate at 0.1% elemental phosphorus, time 210 min) was 0.64% and the “Relative Protease Enzyme Activity” value (protease; base formula, phosphonate at 0.1% elemental phosphorus, time 240 min) was 0.45%. The “enzyme activity of amine salt of the phosphonate versus non-neutralized phosphonate” value (protease; phosphonate neutralized with an amine, such as triethanolamine) was “much improved enzyme activity”, the “Relative Lipase Enzyme Activity in a Use Solution” value (“Relative Lipase Enzyme Activity” below) (lipase; time 0 min) was 100.00% and the “Relative Lipase Enzyme Activity” value (lipase; time 5 min) was 101.22%. The “Relative Lipase Enzyme Activity” value (lipase; time 10 min) was 102.97%, the “Relative Lipase Enzyme Activity” value (lipase; time 20 min) was 98.65% and the “Relative Lipase Enzyme Activity” value (lipase; time 40 min) was 81.12%. For the same compound, the “Relative Lipase Enzyme Activity” value (lipase; time 60 min) was 89.82%.
